Results from US20220296515A1, “Vancomycin Liposome Compositions and Methods” (Nevakar Injectables Inc., priority 2019, published 2022).
Like-named read-outs stand apart in the source and are kept apart here.

Key:
[1] = Pharmacokinetic study in rat models (single dose, infusion); format: in vivo; details: 15 mg/kg, infusion time 1 h
Source text: 5. […] Thus, vancomycin was available for a prolonged period and less frequent administration is enabled.

rats [2] = test: Kidney histopathology in the rat toxicity study; format: in vivo; details: 150 mg/kg daily for 5 days
Method: (§1) To evaluate toxicity of the liposomal formulations, rats were dosed daily with 150 mg/kg test formulation for 5 days, which is about 10-fold of a dose for human administration (typically 1 g).
(§2) The endpoints for renal damage were urinary biomarkers (KIM-1, Clusterin, Osteopontin), a plasma biomarker (creatinine), and histopathology findings for the kidney. Here, blood sampling was performed at a total volume of 2 mL and clinical chemistry samples were drawn pre-dosing, day 3, and day 5 (0.25 mL each), and pharmacokinetic samples were drawn on Day 1 (4 samples of 0.125 mL), Day 3 (4 samples of 0.125 mL), and Day 5 (2 samples of 0.125 mL). For each animal, at euthanasia, kidneys were formalin fixed and flash frozen in liquid nitrogen. Samples were analyzed for histopathological grading using standard procedures well known in the art.

rats [3] = test: Urinary biomarkers of renal damage (KIM-1, clusterin, osteopontin) in the rat toxicity study; format: in vivo; details: 150 mg/kg daily for 5 days, FIG. 8
Method: as §1, §2
Further exemplary results are shown for selected urinary markers in FIG. 8. Here, the markers included KIM-1, clusterin, and osteopontin (OPN). […] On the other hand, the markers remained substantially unchanged or only moderately elevated over control in both treatment groups where liposomal compositions according to the inventive subject matter were used.

[4] = cited from earlier work

What does the source list for `CN[C@H](CC(C)C)C(=O)N[C@H]1C(=O)N[C@@H](CC(N)=O)C(=O)N[C@H]2C(=O)N[C@H]3C(=O)N[C@H](C(=O)N[C@H](C(=O)O)c4cc(O)cc(O)c4-c4cc3ccc4O)[C@H](O)c3ccc(c(Cl)c3)Oc3cc2cc(c3O[C@@H]2O[C@H](CO)[C@@H](O)[C@H](O)[C@H]2O[C@H]2C[C@](C)(N)[C@H](O)[C@H](C)O2)Oc2ccc(cc2Cl)[C@H]1O` [Vancomycin]?
Lambda z [1]: 0.879; AUC(0-inf) ([1]; serum, iv): 34800 ng·h/mL; Cmax ([1]; serum, iv): 34600 ng/mL; Tmax ([1]; serum, iv): 0 h; half-life ([1]; serum, iv): 48 min; kidney histopathological findings (rats [2]): significant proximal tubular cell injury and repair; urinary markers KIM-1, clusterin, osteopontin (OPN) (rats [3]): significant elevations of all markers; half-life ([4]; humans with normal renal function): three to six; mean plasma concentration ([4]; humans, multiple intravenous infusions of 1 gram over 60 minutes, 11 hours after end of infusion): 8000 ng/mL; recovered unchanged in urine ([4]; within 24 h after a single dose): 80%-90
